According to PMC11859423, “Fluorescent Probes to Image the KCa3.1 Channel in Tumor Cells” (Pharmaceutics, 2025):
Where two headings read alike, the source gives them in different places.

Legend:
[1] = cited from earlier work; for Absorption λmax / Emission λmax / Stokes Shift / ΦF absolute quantum yield / τ photoluminescence lifetime: 298 K
[2] = UV-Vis absorption and time-resolved photoluminescence spectroscopy; format: physicochemical; details: 6b compared with 6a
Protocol: All solvents used were of spectrometric grade (Uvasol®). UV-visible absorption spectra were measured using a Shimadzu UV–VIS spectrophotometer (UV-3600i). Photoluminescence quantum yields were measured with a Hamamatsu Photonics absolute PL quantum yield measurement system (C9920-02) equipped with a L9799-01 CW Xe light source (150 W), a monochromator, a C7473 photonic multi-channel analyzer, an integrating sphere and employing U6039-05 software, version 3.6.0. (Hamamatsu Photonics, Ltd., Shizuoka, Japan). Steady-state excitation and emission spectra were recorded on a FluoTime 300 spectrometer from PicoQuant equipped with a 300 W ozone-free Xe lamp (200–1100 nm), a 10 W Xe-flash lamp (200–1100 nm, pulse width ca. 1 µs) with repetition rates of 1–300 Hz, a double-grating excitation monochromator (Czerny–Turner type, grating with 1200 lines/mm, blaze wavelength: 300 nm), diode lasers (pulse width < 20 ps) operated by a computer-controlled laser driver PDL-828 “Sepia II” (repetition rate up to 80 MHz, burst mode for slow and weak decays), two emission monochromators (Czerny–Turner, selectable between double-grating blazed at 500 nm with 2.7 nm/mm dispersion and 1200 lines/mm, or single-grating blazed at 1250 nm with 5.4 nm/mm dispersion and 600 lines/mm) with adjustable slit width between 25 μm and 7 mm. Glam–Thompson polarizers for excitation (after the Xe-lamps) and emission (after the sample) were used. Different sample holders (Peltier-cooled mounting unit ranging from −15 to 110 °C or an adjustable front-face sample holder), along with two detectors (namely a PMA Hybrid-07 from PicoQuant with transit time spread FWHM < 50 ps, 200–850 nm, or a H10330C-45-C3 NIR detector with transit time spread FWHM 0.4 ns, 950–1400 nm from Hamamatsu) were used. Steady-state spectra and photoluminescence lifetimes were recorded in TCSPC mode by a PicoHarp 300 (minimum base resolution 4 ps) or in MCS mode by a TimeHarp 260 (where up to several ms can be traced). Emission and excitation spectra were corrected for source intensity (lamp and grating) by standard correction curves. For samples with lifetimes in the ns order, an instrument response function calibration (IRF) was performed using a diluted Ludox® dispersion. Lifetime analysis was performed using the commercial EasyTau 2 software, version 2.3. (PicoQuant, Berlin, Germany). The quality of the fit was assessed by minimizing the reduced chi squared function (χ^2) and visual inspection of the weighted residuals and their autocorrelation.
Fluorescence microscopy was used for the analysis of KCa3.1 channel labeling of cells with fluorescent dyes. Therefore, the photophysical properties of fluorescently labeled senicapoc derivatives 15a, 21a, and 22 were determined. Since the fluorophores are separated from the rest of the molecule by a linker, the photophysical properties could be recorded using azide precursors 6a, 6b, and 7a as well.

[3] = general property stated without reference
[4] = measured in CH3CN, c = 10^−5 M, CH2CH2O linker instead of CH2CH2OCH2CH2O linker

Row | Compound | Absorption λmax ([1]; CH2Cl2, c = 10^−5 M) [nm] | Emission λmax ([1]; CH2Cl2, c = 10^−5 M) [nm] | Stokes Shift ([1]; CH2Cl2, c = 10^−5 M) [nm] | ΦF absolute quantum yield ([1]; CH2Cl2, c = 10^−5 M) | τ photoluminescence lifetime ([1]; CH2Cl2, c = 10^−5 M) [ns] | other results
1 | CO[B-]1(F)n2c(C)cc(C)c2C(c2ccc(OCCOCCN=[N+]=[N-])cc2)=C2C(C)=CC(C)=[N+]21 (stereo not drawn) [7a] | 501 | 516 | 15 | 0.43 ± 0.02 | 3.50 ± 0.01 | 
2 | O=C1OC2(c3ccc(O)cc3Oc3cc(O)ccc32)c2ccccc21 [fluorescein, reference compound] |  |  |  |  |  | absorption maximum λmax [1, 3]: 485 nm; emission maximum λmax [1, 3]: 514 nm
3 | CCC1=C(C)C2=C(c3ccc(OCCOCCN=[N+]=[N-])cc3)c3c(C)c(CC)c(C)n3[B-](F)(F)[N+]2=C1C [6b, 8-[4-(2-(2-Azidoethoxy)ethoxy)phenyl]-2,6-diethyl-4,4-difluoro-1,3,5,7-tetramethyl-4-bora-3a,4a-diaza-s-indacene] |  |  |  |  |  | Absorption λmax [1, 4]: 524 nm; Emission λmax [1, 4]: 537 nm; Stokes Shift [1, 4]: 13 nm; ΦF absolute quantum yield [1, 4]: 0.81 ± 0.02; τ photoluminescence lifetime [1, 4]: 6.32 ± 0.05 ns; increase of absorption and emission maxima by two ethyl moieties at the bodipy core [2]: 23 nm
4 | CC1=CC(C)=[N+]2C1=C(c1ccc(OCCOCCN=[N+]=[N-])cc1)c1c(C)cc(C)n1[B-]2(F)F [6a] | 501 | 515 | 14 | 0.48 ± 0.02 | 3.80 ± 0.02 | 
